Experimental data taken from ChEMBL document CHEMBL1201862, “PubChem BioAssay data set” (2004).
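Compound exposure: 48 hours, 5 concentrations, 96-well plates. GI50 marks 50% less growth.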 The source made the active and inactive calls. Cut-off read from the data, not from the text of the source: active = GI50 up to about 1.1 µM and inactive = higher.

Assays:
Test in all cases: growth of human tumour cells (NCI), 48 h
NCI-H522 = tested on: NCI-H522
SK-OV-3 = tested on: SK-OV-3
HOP-92 = tested on: HOP-92
NCI-H460 = tested on: NCI-H460
EKVX = tested on: EKVX
LOX IMVI = tested on: LOX IMVI
SF-268 = tested on: SF-268
MOLT-4 = tested on: MOLT-4
HCC 2998 = tested on: HCC 2998
RPMI-8226 = tested on: RPMI-8226
HOP-62 = tested on: HOP-62
K562 = tested on: K562
HL-60 = tested on: HL-60
U-251 = tested on: U-251
OVCAR-3 = tested on: OVCAR-3
SF-539 = tested on: SF-539

Measured: GI50

CSc1nc2nccnc2c(=O)[nH]1
inactive: NCI-H522 > 100 µM | SK-OV-3 > 100 µM | HOP-92 96.2 µM | NCI-H460 > 100 µM | EKVX > 100 µM | LOX IMVI > 100 µM | SF-268 > 100 µM | MOLT-4 > 100 µM | HCC 2998 > 100 µM | RPMI-8226 > 100 µM | HOP-62 > 100 µM | K562 > 100 µM | HL-60 > 100 µM | U-251 > 100 µM

COc1ccc(-c2oc(/C=N/c3ccccc3)c([N+](=O)[O-])c2-c2ccc(OC)c(OC)c2)cc1OC
inactive: NCI-H522 > 100 µM | SK-OV-3 > 100 µM | HOP-92 65.6 µM | NCI-H460 > 100 µM | LOX IMVI > 100 µM | OVCAR-3 > 100 µM | SF-268 > 100 µM | MOLT-4 > 100 µM | HCC 2998 > 100 µM | RPMI-8226 > 100 µM | HOP-62 > 100 µM | SF-539 > 100 µM | K562 > 100 µM | HL-60 > 100 µM | U-251 > 100 µM

CC1CCC2(NC1)OC1CC3[C@@H]4CC=C5C=CCC[C@]5(C)C4CC[C@]3(C)C1C2C (some centres undefined)
inactive: SK-OV-3 25.8 µM | HOP-92 19.7 µM | NCI-H460 19 µM | EKVX 19.6 µM | LOX IMVI 17.9 µM | OVCAR-3 24.9 µM | SF-268 28.6 µM | MOLT-4 21.7 µM | HCC 2998 17.2 µM | RPMI-8226 20 µM | HOP-62 18.6 µM | SF-539 19.6 µM | K562 18.5 µM | HL-60 12.3 µM | U-251 28.3 µM

COC(=O)C1Cc2c([nH]c3ccccc23)[C@H](CC(C)C)N1 (some centres undefined)
inactive: NCI-H522 > 100 µM | SK-OV-3 > 100 µM | HOP-92 > 100 µM | EKVX > 100 µM | LOX IMVI > 100 µM | OVCAR-3 > 100 µM | SF-268 > 100 µM | MOLT-4 > 100 µM | HCC 2998 > 100 µM | RPMI-8226 > 100 µM | HOP-62 > 100 µM | SF-539 > 100 µM | K562 > 100 µM | HL-60 > 100 µM | U-251 > 100 µM

OCCNCO
inactive: NCI-H522 > 100 µM | SK-OV-3 > 100 µM | HOP-92 > 100 µM | NCI-H460 > 100 µM | EKVX > 100 µM | LOX IMVI > 100 µM | OVCAR-3 > 100 µM | SF-268 > 100 µM | MOLT-4 > 100 µM | RPMI-8226 > 100 µM | HOP-62 > 100 µM | SF-539 > 100 µM | K562 > 100 µM | HL-60 46.8 µM | U-251 > 100 µM

N#CC(C#N)=C(N)/C(C#N)=C\c1ccnc2ccccc12
inactive: NCI-H522 30 µM | HOP-92 23 µM | NCI-H460 39.3 µM | OVCAR-3 31.3 µM | SF-268 18.5 µM | MOLT-4 15.8 µM | HCC 2998 37 µM | HOP-62 23.9 µM | SF-539 15.1 µM | K562 4.24 µM | HL-60 2.01 µM | U-251 20 µM

CO/N=C(/C(=O)Nc1c[n+](CC(=O)[O-])cs1)c1csc(N)n1
inactive: NCI-H522 > 100 µM | SK-OV-3 > 100 µM | HOP-92 > 100 µM | NCI-H460 > 100 µM | EKVX > 100 µM | LOX IMVI > 100 µM | OVCAR-3 > 100 µM | SF-268 > 100 µM | MOLT-4 > 100 µM | HCC 2998 > 100 µM | RPMI-8226 > 100 µM | SF-539 > 100 µM | K562 > 100 µM | HL-60 > 100 µM | U-251 > 100 µM

c1cncc(CSc2nc3ccccc3nc2-c2cccs2)c1
inactive: NCI-H522 33.4 µM | NCI-H460 56 µM | EKVX 98.4 µM | LOX IMVI > 100 µM | OVCAR-3 20.9 µM | SF-268 7.71 µM | MOLT-4 24.8 µM | HCC 2998 86.1 µM | RPMI-8226 32.8 µM | HOP-62 71.3 µM | SF-539 71.8 µM | K562 39.8 µM | HL-60 13 µM

CCC(=O)C(C(=O)CC)c1c(OC(=O)c2ccccc2)ccc(O)c1C(=O)OC
inactive: NCI-H522 > 100 µM | SK-OV-3 > 100 µM | HOP-92 > 100 µM | NCI-H460 > 100 µM | EKVX > 100 µM | LOX IMVI > 100 µM | OVCAR-3 > 100 µM | SF-268 > 100 µM | MOLT-4 72.3 µM | RPMI-8226 > 100 µM | HOP-62 > 100 µM | SF-539 > 100 µM | K562 > 100 µM | HL-60 > 100 µM | U-251 > 100 µM
